Laboratory results reported in PubChem BioAssay (NCI).
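Five compound concentrations were applied to cells in 96-well plates for 48 hours; endpoints were derived by simple linear interpolation of the resulting dose-response curve. Definition used: TGI = concentration required for complete inhibition of growth.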

Experiments:
Assay in all cases: inhibition of tumour cell growth, NCI panel, 48 h
HOP-62 NSCLC = system: HOP-62 NSCLC
COLO 205 colon = system: COLO 205 colon
MOLT-4 leukemia = system: MOLT-4 leukemia
SNB-75 CNS = system: SNB-75 CNS
OVCAR-8 ovarian = system: OVCAR-8 ovarian
CAKI-1 renal = system: CAKI-1 renal
CCRF-CEM leukemia = system: CCRF-CEM leukemia
SK-OV-3 ovarian = system: SK-OV-3 ovarian
M14 melanoma = system: M14 melanoma
IGROV1 ovarian = system: IGROV1 ovarian
HCT-116 colon = system: HCT-116 colon
RPMI-8226 leukemia = system: RPMI-8226 leukemia
MALME-3M melanoma = system: MALME-3M melanoma
HCT-15 colon = system: HCT-15 colon
OVCAR-4 ovarian = system: OVCAR-4 ovarian
HL-60(TB) leukemia = system: HL-60(TB) leukemia
KM12 colon = system: KM12 colon
K-562 leukemia = system: K-562 leukemia
A549 NSCLC = system: A549 NSCLC
HT29 colon = system: HT29 colon
NCI-H522 lung = system: NCI-H522 lung
U251 CNS = system: U251 CNS
RXF 393 renal = system: RXF 393 renal
SNB-19 CNS = system: SNB-19 CNS
BT-549 breast = system: BT-549 breast
MDA-MB-435 = system: MDA-MB-435
MDA-N = system: MDA-N
NCI-H460 lung = system: NCI-H460 lung
SW-620 colon = system: SW-620 colon
HOP-92 NSCLC = system: HOP-92 NSCLC
SF-295 CNS = system: SF-295 CNS
UO-31 renal = system: UO-31 renal
HS 578T breast = system: HS 578T breast
SF-539 CNS = system: SF-539 CNS
SN12C renal = system: SN12C renal
UACC-62 melanoma = system: UACC-62 melanoma
NCI/ADR-RES ovarian = system: NCI/ADR-RES ovarian
SK-MEL-2 melanoma = system: SK-MEL-2 melanoma
ACHN renal = system: ACHN renal
SK-MEL-28 melanoma = system: SK-MEL-28 melanoma
SK-MEL-5 melanoma = system: SK-MEL-5 melanoma
UACC-257 melanoma = system: UACC-257 melanoma
DU-145 prostate = system: DU-145 prostate
NCI-H23 lung = system: NCI-H23 lung
EKVX NSCLC = system: EKVX NSCLC
T-47D breast = system: T-47D breast
SR leukemia = system: SR leukemia
OVCAR-3 ovarian = system: OVCAR-3 ovarian
LOX IMVI melanoma = system: LOX IMVI melanoma
786-0 renal = system: 786-0 renal
PC-3 prostate = system: PC-3 prostate
MDA-MB-231 breast = system: MDA-MB-231 breast
TK-10 renal = system: TK-10 renal
OVCAR-5 ovarian = system: OVCAR-5 ovarian
MCF7 breast = system: MCF7 breast
A498 renal = system: A498 renal
SF-268 CNS = system: SF-268 CNS
NCI-H226 lung = system: NCI-H226 lung
HCC-2998 colon = system: HCC-2998 colon

## O=C(/C=C/c1ccc(O)c(-c2cc(C(=O)/C=C/c3ccc(O)cc3)c(O)cc2O)c1)c1ccc(O)cc1O
HOP-62 NSCLC
  TGI: > 50 µM
COLO 205 colon
  TGI: 24 µM
MOLT-4 leukemia
  TGI: > 50 µM
SNB-75 CNS
  TGI: 36 µM
OVCAR-8 ovarian
  TGI: 24.7 µM
CAKI-1 renal
  TGI: > 50 µM
CCRF-CEM leukemia
  TGI: 37.3 µM
SK-OV-3 ovarian
  TGI: 48.3 µM
M14 melanoma
  TGI: > 50 µM
IGROV1 ovarian
  TGI: > 50 µM
HCT-116 colon
  TGI: 23.7 µM
RPMI-8226 leukemia
  TGI: > 50 µM
MALME-3M melanoma
  TGI: > 50 µM
HCT-15 colon
  TGI: > 50 µM
OVCAR-4 ovarian
  TGI: > 50 µM
HL-60(TB) leukemia
  TGI: > 50 µM
KM12 colon
  TGI: 31.7 µM
K-562 leukemia
  TGI: 35.1 µM
A549 NSCLC
  TGI: > 50 µM
HT29 colon
  TGI: 22.3 µM
NCI-H522 lung
  TGI: > 50 µM
U251 CNS
  TGI: > 50 µM
RXF 393 renal
  TGI: > 50 µM
SNB-19 CNS
  TGI: > 50 µM
BT-549 breast
  TGI: > 50 µM
MDA-MB-435
  TGI: > 50 µM
MDA-N
  TGI: > 50 µM
NCI-H460 lung
  TGI: > 50 µM
SW-620 colon
  TGI: > 50 µM
HOP-92 NSCLC
  TGI: > 50 µM
SF-295 CNS
  TGI: > 50 µM
UO-31 renal
  TGI: > 50 µM
HS 578T breast
  TGI: > 50 µM
SF-539 CNS
  TGI: 26.3 µM
SN12C renal
  TGI: > 50 µM
UACC-62 melanoma
  TGI: 20.4 µM
NCI/ADR-RES ovarian
  TGI: > 50 µM
SK-MEL-2 melanoma
  TGI: > 50 µM
ACHN renal
  TGI: > 50 µM
SK-MEL-28 melanoma
  TGI: 22.1 µM
SK-MEL-5 melanoma
  TGI: > 50 µM
UACC-257 melanoma
  TGI: > 50 µM
DU-145 prostate
  TGI: > 50 µM
NCI-H23 lung
  TGI: > 50 µM
EKVX NSCLC
  TGI: > 50 µM
T-47D breast
  TGI: > 50 µM
SR leukemia
  TGI: 28.4 µM
OVCAR-3 ovarian
  TGI: 43.8 µM
LOX IMVI melanoma
  TGI: 43.1 µM
786-0 renal
  TGI: > 50 µM
PC-3 prostate
  TGI: > 50 µM
MDA-MB-231 breast
  TGI: > 50 µM
TK-10 renal
  TGI: > 50 µM
OVCAR-5 ovarian
  TGI: > 50 µM
MCF7 breast
  TGI: > 50 µM
A498 renal
  TGI: > 50 µM
SF-268 CNS
  TGI: > 50 µM

## O=C(CCCN1CCC2(CC1)CC(=O)N(N1CCCCCC1)C2=O)c1ccccc1
HOP-62 NSCLC
  TGI: > 100 µM
COLO 205 colon
  TGI: > 100 µM
MOLT-4 leukemia
  TGI: > 100 µM
SNB-75 CNS
  TGI: > 100 µM
OVCAR-8 ovarian
  TGI: > 100 µM
CAKI-1 renal
  TGI: > 100 µM
CCRF-CEM leukemia
  TGI: > 100 µM
SK-OV-3 ovarian
  TGI: > 100 µM
M14 melanoma
  TGI: > 100 µM
IGROV1 ovarian
  TGI: > 100 µM
HCT-116 colon
  TGI: > 100 µM
RPMI-8226 leukemia
  TGI: > 100 µM
MALME-3M melanoma
  TGI: > 100 µM
HCT-15 colon
  TGI: > 100 µM
NCI-H226 lung
  TGI: > 100 µM
OVCAR-4 ovarian
  TGI: > 100 µM
HL-60(TB) leukemia
  TGI: > 100 µM
K-562 leukemia
  TGI: > 100 µM
A549 NSCLC
  TGI: > 100 µM
HT29 colon
  TGI: > 100 µM
NCI-H522 lung
  TGI: > 100 µM
U251 CNS
  TGI: > 100 µM
RXF 393 renal
  TGI: > 100 µM
SNB-19 CNS
  TGI: > 100 µM
BT-549 breast
  TGI: > 100 µM
MDA-MB-435
  TGI: > 100 µM
MDA-N
  TGI: > 100 µM
HOP-92 NSCLC
  TGI: > 100 µM
SF-295 CNS
  TGI: > 100 µM
UO-31 renal
  TGI: > 100 µM
HS 578T breast
  TGI: > 100 µM
SF-539 CNS
  TGI: > 100 µM
SN12C renal
  TGI: > 100 µM
UACC-62 melanoma
  TGI: > 100 µM
NCI/ADR-RES ovarian
  TGI: > 100 µM
SK-MEL-2 melanoma
  TGI: > 100 µM
ACHN renal
  TGI: > 100 µM
SK-MEL-28 melanoma
  TGI: > 100 µM
SK-MEL-5 melanoma
  TGI: > 100 µM
UACC-257 melanoma
  TGI: > 100 µM
DU-145 prostate
  TGI: > 100 µM
NCI-H23 lung
  TGI: > 100 µM
EKVX NSCLC
  TGI: > 100 µM
T-47D breast
  TGI: > 100 µM
SR leukemia
  TGI: > 100 µM
OVCAR-3 ovarian
  TGI: > 100 µM
LOX IMVI melanoma
  TGI: > 100 µM
786-0 renal
  TGI: > 100 µM
PC-3 prostate
  TGI: > 100 µM
MDA-MB-231 breast
  TGI: > 100 µM
TK-10 renal
  TGI: > 100 µM
OVCAR-5 ovarian
  TGI: > 100 µM
MCF7 breast
  TGI: > 100 µM
A498 renal
  TGI: > 100 µM
SF-268 CNS
  TGI: > 100 µM

## Cc1ccc(/C=C/c2nnc(N/N=C/c3ccc4c(c3)OCO4)[nH]c2=O)cc1
HOP-62 NSCLC
  TGI: 33.7 µM
COLO 205 colon
  TGI: > 100 µM
MOLT-4 leukemia
  TGI: > 100 µM
SNB-75 CNS
  TGI: 31.2 µM
OVCAR-8 ovarian
  TGI: 34.7 µM
CAKI-1 renal
  TGI: 91.8 µM
CCRF-CEM leukemia
  TGI: 45.4 µM
SK-OV-3 ovarian
  TGI: 93.2 µM
M14 melanoma
  TGI: > 100 µM
IGROV1 ovarian
  TGI: 41.8 µM
HCT-116 colon
  TGI: 45.9 µM
RPMI-8226 leukemia
  TGI: > 100 µM
MALME-3M melanoma
  TGI: > 100 µM
HCT-15 colon
  TGI: > 100 µM
NCI-H226 lung
  TGI: 72.5 µM
HCC-2998 colon
  TGI: 79.8 µM
OVCAR-4 ovarian
  TGI: 36.8 µM
KM12 colon
  TGI: 46.9 µM
K-562 leukemia
  TGI: 70.7 µM
A549 NSCLC
  TGI: > 100 µM
HT29 colon
  TGI: 53.7 µM
NCI-H522 lung
  TGI: > 100 µM
U251 CNS
  TGI: 33.6 µM
RXF 393 renal
  TGI: > 100 µM
SNB-19 CNS
  TGI: 37.4 µM
BT-549 breast
  TGI: 33.9 µM
MDA-MB-435
  TGI: > 100 µM
MDA-N
  TGI: 62.4 µM
NCI-H460 lung
  TGI: 57.6 µM
SW-620 colon
  TGI: 42.6 µM
SF-295 CNS
  TGI: > 100 µM
UO-31 renal
  TGI: > 100 µM
HS 578T breast
  TGI: 34.6 µM
SF-539 CNS
  TGI: 42.4 µM
SN12C renal
  TGI: 38.1 µM
NCI/ADR-RES ovarian
  TGI: 37.5 µM
SK-MEL-2 melanoma
  TGI: 78.9 µM
ACHN renal
  TGI: 65.6 µM
SK-MEL-28 melanoma
  TGI: 30.9 µM
SK-MEL-5 melanoma
  TGI: > 100 µM
UACC-257 melanoma
  TGI: > 100 µM
DU-145 prostate
  TGI: 38.7 µM
NCI-H23 lung
  TGI: 32.5 µM
EKVX NSCLC
  TGI: > 100 µM
T-47D breast
  TGI: > 100 µM
SR leukemia
  TGI: 40.9 µM
OVCAR-3 ovarian
  TGI: 36.2 µM
LOX IMVI melanoma
  TGI: 37.7 µM
786-0 renal
  TGI: 27.9 µM
PC-3 prostate
  TGI: 43.3 µM
MDA-MB-231 breast
  TGI: 29.9 µM
TK-10 renal
  TGI: 58.6 µM
OVCAR-5 ovarian
  TGI: > 100 µM
MCF7 breast
  TGI: 51.2 µM
SF-268 CNS
  TGI: 33.9 µM
